Source: patent publication US12428406B2 (PMV Pharmaceuticals, Inc., priority 2019, dated 2025)

The molecules below were run against T1, p53 Y220C (Homo sapiens, UniProt P04637, Y220C) (assay: In vitro DNA binding activity assay (HTRF / TR-FRET): stabilization of p53 Y220C and increase of its DNA binding activity). Details: recombinant His-tagged p53 Y220C DNA binding domain (aa 94-312), biotin-labeled consensus DNA, incubated at 27° C. or 29° C. for 60 min.
T1 construct: The recombinant protein was a truncation mutant containing only amino acids 94-312 of p53; made in house; host or cells: E. coli
T1 sequence (P04637 94-312, change not shown): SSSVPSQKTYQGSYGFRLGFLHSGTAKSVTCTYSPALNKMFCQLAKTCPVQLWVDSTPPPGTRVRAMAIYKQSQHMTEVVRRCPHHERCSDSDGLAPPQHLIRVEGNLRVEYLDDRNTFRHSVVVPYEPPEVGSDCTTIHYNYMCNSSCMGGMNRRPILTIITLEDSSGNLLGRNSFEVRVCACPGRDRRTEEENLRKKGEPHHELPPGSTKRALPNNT
Type: biochemical
Procedure: The ability of a compound of the invention to stabilize p53 Y220C and increase the DNA binding activity of p53 Y220C was measured by a homogeneous time-resolved fluorescence (HTRF) assay. Recombinant His-tagged p53 Y220C used in the HTRF assay was expressed in the bacterium E. coli.
The binding of the recombinant His-tagged p53 Y220C protein and the biotin-labeled consensus DNA was measured using fluorescence resonance energy transfer (FRET). For the FRET assay, the binding between the p53 mutant and the DNA sequence was measured by detecting the fluorescence of the interaction between an anti-His antibody conjugated to allophycocyanin (APC) and streptavidin conjugated to europium to detect the biotin-labeled DNA.
The test compounds were prepared as 4.5 mM stock solutions in dimethyl sulfoxide (DMSO). The compounds of the disclosure were used to test the stabilization of p53 Y220C and increase in DNA binding activity of p53 Y220C. The stock solutions were then serially diluted 3-fold in DMSO, and 1.2 μL of the diluted solutions was added to each well of a 384-well polypropylene black plate.
The test and control samples were spun at 1200 rpm for 1 minute and incubated at room temperature for 15 minutes. […] The plates were spun at 1200 rpm for 1 minute and incubated at room temperature for 20 minutes. The assay signals were monitored by reading excitation at 340 nm, and emission fluorescence at 615 nm and 665 nm on a plate reader.
The percentage of activation of protein DNA binding in the presence of a compound of the invention compared to the absence of the compound was denoted by a SC150 value, which indicated the concentration of the compound required to increase the DNA binding activity by 50%. The SC150 values were calculated using either Prism™ or ActivityBase™.

SC150 (concentration of the compound required to increase the DNA binding activity by 50%), + (+ = 0 μM ≤ SC150 < 0.05 μM):
COc1cc(S(C)(=O)=O)ccc1NCC#Cc1cc2c(N[C@H]3CCC[C@@H](N)C3)cccc2n1CC(F)(F)F (racemic) [Compound 27A, rac-(1R,3S)-N^1-(2-{3-[(4-methanesulfonyl-2-methoxyphenyl)amino]prop-1-yn-1-yl}-1-(2,2,2-trifluoroethyl)-1H-indol-4-yl)cyclohexane-1,3-diamine]
COc1cc(S(C)(=O)=O)ccc1NCC#Cc1cc2c(N[C@H]3CCCC[C@H]3N)cccc2n1CC(F)(F)F (racemic) [Compound 29A, rac-(1R,2S)-N^1-(2-{3-[(4-methanesulfonyl-2-methoxyphenyl)amino]prop-1-yn-1-yl}-1-(2,2,2-trifluoroethyl)-1H-indol-4-yl)cyclo-hexane-1,2-diamine]
CCC(=O)OC(C)CN1CCC(Nc2cccc3c2cc(C#CCNc2ccc(S(C)(=O)=O)cc2OC)n3CC(F)(F)F)CC1 (racemic) [Compound 590A, 1-{4-[(2-{3-[(4-methanesulfonyl-2-methoxyphenyl)amino]prop-1-yn-1-yl}-1-(2,2,2-trifluoroethyl)-1H-indol-4-yl)amino]piperidin-1-yl}propan-2-yl propanoate]
COc1cc(S(C)(=O)=O)ccc1NCC#Cc1cc2c(NC3CCN(CC(C)OC(=O)C(C)C)CC3)cccc2n1CC(F)(F)F (racemic) [Compound 591A, 1-{4-[(2-{3-[(4-methanesulfonyl-2-methoxyphenyl)amino]prop-1-yn-1-yl}-1-(2,2,2-trifluoroethyl)-1H-indol-4-yl)amino]piperidin-1-yl}propan-2-yl 2-methylpropanoate]
COCC(O)CN1CC[C@H](Nc2cccc3c2cc(C#CCNc2ccc(S(C)(=O)=O)cc2OC)n3CC(F)(F)F)[C@H](C)C1 (mixture of isomers) [Compound 701A, rac-1-[(3R,4R)-4-[(2-{3-[(4-methanesulfonyl-2-methoxyphenyl)amino]prop-1-yn-1-yl}-1-(2,2,2-trifluoroethyl)-1H-indol-4-yl)amino]-3-methylpiperidin-1-yl]-3-methoxypropan-2-ol]
COCC(O)CN1CC[C@H](Nc2cccc3c2cc(C#CCNc2ccc(S(C)(=O)=O)cc2OC)n3CC(F)(F)F)[C@@H](C)C1 (mixture of isomers) [Compound 702A, rac-1-[(3R,4S)-4-[(2-{3-[(4-methanesulfonyl-2-methoxyphenyl)amino]prop-1-yn-1-yl}-1-(2,2,2-trifluoroethyl)-1H-indol-4-yl)amino]-3-methylpiperidin-1-yl]-3-methoxypropan-2-ol]
COc1cc(S(C)(=O)=O)ccc1NCC#Cc1cc2c(N[C@H]3CN(C)CC[C@H]3O)cccc2n1CC(F)(F)F (racemic) [Compound 766A, rac-(3R,4S)-3-[(2-{3-[(4-methanesulfonyl-2-methoxyphenyl)amino]prop-1-yn-1-yl}-1-(2,2,2-trifluoroethyl)-1H-indol-4-yl)amino]-1-methylpiperidin-4-ol]
COc1cc(S(C)(=O)=O)ccc1NCC#Cc1cc2c(N[C@H]3CCN(C)C[C@@H]3O)cccc2n1CC(F)(F)F (racemic) [Compound 767A, rac-(3R,4R)-4-[(2-{3-[(4-methanesulfonyl-2-methoxyphenyl)amino]prop-1-yn-1-yl}-1-(2,2,2-trifluoroethyl)-1H-indol-4-yl)amino]-1-methylpiperidin-3-ol]
COc1cc(S(C)(=O)=O)ccc1NCC#Cc1cc2c(N[C@@H]3CCN(C)C[C@H]3F)cccc2n1CC(F)(F)F (racemic) [Compound 769A, (rac)-N-((3R,4R)-3-fluoro-1-methylpiperidin-4-yl)-2-(3-((2-methoxy-4-(methylsulfonyl)phenyl)amino)prop-1-yn-1-yl)-1-(2,2,2-trifluoroethyl)-1H-indol-4-amine]
COC(=O)c1ccc(NCC#Cc2cc3c(N[C@H]4CCN(C)C[C@@H]4F)cccc3n2CC(F)(F)F)c(OC)c1 (racemic) [Compound 777A, rac-Methyl 4-{[3-(4-{[(3R,4R)-3-fluoro-1-methylpiperidin-4-yl]amino}-1-(2,2,2-trifluoroethyl)-1H-indol-2-yl)prop-2-yn-1-yl]amino}-3-methoxybenzoate]
COC(=O)c1ccc(NCC#Cc2cc3c(N[C@H]4CCN(C)C[C@H]4F)cccc3n2CC(F)(F)F)c(OC)c1 (racemic) [Compound 778A, rac-methyl 4-{[3-(4-{[(3R,4S)-3-fluoro-1-methylpiperidin-4-yl]amino}-1-(2,2,2-trifluoroethyl)-1H-indol-2-yl)prop-2-yn-1-yl]amino}-3-methoxybenzoate]
COc1cc(C(=O)O)ccc1NCC#Cc1cc2c(N[C@H]3CCN(C)C[C@H]3F)cccc2n1CC(F)(F)F (racemic) [Compound 779A, rac-4-{[3-(4-{[(3R,4S)-3-fluoro-1-methylpiperidin-4-yl]amino}-1-(2,2,2-trifluoroethyl)-1H-indol-2-yl)prop-2-yn-1-yl]amino}-3-methoxybenzoic acid]
COc1cc(C(N)=O)ccc1NCC#Cc1cc2c(N[C@H]3CCN(C)C[C@H]3F)cccc2n1CC(F)(F)F (racemic) [Compound 782A, rac-4-{[3-(4-{[(3R,4S)-3-fluoro-1-methylpiperidin-4-yl]amino}-1-(2,2,2-trifluoroethyl)-1H-indol-2-yl)prop-2-yn-1-yl]amino}-3-methoxybenzamide]
CNC(=O)c1ccc(NCC#Cc2cc3c(N[C@H]4CCN(C)C[C@H]4F)cccc3n2CC(F)(F)F)c(OC)c1 (racemic) [Compound 783A, 4-[3-[4-[[(3R,4S)-3-fluoro-1-methyl-4-piperidyl]amino]-1-(2,2,2-trifluoroethyl)indol-2-yl]prop-2-ynylamino]-3-methoxy-N-methyl-benzamide]
CNC(=O)c1ccc(NCC#Cc2cc3c(N[C@H]4CCN(C)C[C@@H]4F)cccc3n2CC(F)(F)F)c(OC)c1 (racemic) [Compound 785A, rac-4-{[3-(4-{[(3R,4R)-3-fluoro-1-methylpiperidin-4-yl]amino}-1-(2,2,2-trifluoroethyl)-1H-indol-2-yl)prop-2-yn-1-yl]amino}-3-methoxy-N-methylbenzamide]
COc1cc(S(C)(=O)=O)ccc1NCC#Cc1cc2c(N[C@H]3CCN(C(C)C)C[C@H]3F)cccc2n1CC(F)(F)F (racemic) [Compound 795A, (rac)-N-[(3R,4S)-3-fluoro-1-(propan-2-yl)piperidin-4-yl]-2-{3-[(4-methanesulfonyl-2-methoxyphenyl)amino]prop-1-yn-1-yl}-1-(2,2,2-trifluoroethyl)-1H-indol-4-amine]
COc1cc(C(=O)O)ccc1NCC#Cc1cc2c(N[C@H]3CCN(C(C)C)C[C@H]3F)cccc2n1CC(F)(F)F (racemic) [Compound 796A, 4-((3-(4-(((3R,4S)-3-fluoro-1-isopropylpiperidin-4-yl)amino)-1-(2,2,2-trifluoroethyl)-1H-indol-2-yl)prop-2-yn-1-yl)amino)-3-methoxybenzoic acid]
CCOC(=O)c1ccc(NCC#Cc2cc3c(N[C@H]4CCN(C(C)C)C[C@H]4F)cccc3n2CC(F)(F)F)c(OC)c1 (racemic) [Compound 797A, ethyl 4-((3-(4-(((3R,4S)-3-fluoro-1-isopropylpiperidin-4-yl)amino)-1-(2,2,2-trifluoroethyl)-1H-indol-2-yl)prop-2-yn-1-yl)amino)-3-methoxybenzoate]
